Experimental data as given in US20050008896A1, “Luminous organic compound and manufacturing method” (Orient Chemical Ind., Ltd., priority 2003, published 2005).

Experiments:
[1] = Fluorescence (photoluminescence) intensity in ethanol, fluorescence spectrophotometer RF-5300PC; type: physicochemical; conditions: for Fluorescence Intensity / center of Luminous Wave: 25 mg of compound in 100 ml of ethanol; for Relative Value of Fluorescence Intensity, Relative Value (2) (Related to Metal Complex Intermediate 3): metal complex intermediate 3 regarded as 1.00
Experimental: Fluorescence intensity of each obtained compound was measured in order to evaluate fluorescence property.
A method of the evaluation is as follows. 25 mg of each compound was dissolved in 100 ml of ethanol respectively. The fluorescence intensity, photoluminescence intensity, was measured by a fluorescence spectrophotometer RF-5300PC that is available from Shimadzu Corporation. The measured results of the luminous organic compounds 1 to 9 and 11, the comparative compounds 1 to 3 and the metal complex intermediate 1 to 3 are indicated in Table 3. […] The relative value (2) of the fluorescence intensity indicates the value related to the fluorescence intensity of the metal complex intermediate 3 regarded as 1.00.

[2] = stood at room temperature overnight
Experimental: A method of measurement of the solubility is as follows. After the prescribed amount of the compound was added to each solvent, it was heated by water bath and irradiated supersonic wave for 1 hour. It was stood at room temperature overnight, and filtrated. Obtained residue was dried. Amount of insoluble residue was weighed, and solubility (w/v %) was determined.

C[N+](C)(C)CCCC[N+](C)(C)C.O=C(C=C([O-])C(F)(F)F)c1ccc2ccccc2c1.O=C(C=C([O-])C(F)(F)F)c1ccc2ccccc2c1.O=C(C=C([O-])C(F)(F)F)c1ccc2ccccc2c1.O=C(C=C([O-])C(F)(F)F)c1ccc2ccccc2c1.O=C(C=C([O-])C(F)(F)F)c1ccc2ccccc2c1.O=C(C=C([O-])C(F)(F)F)c1ccc2ccccc2c1.O=C(C=C([O-])C(F)(F)F)c1ccc2ccccc2c1.O=C(C=C([O-])C(F)(F)F)c1ccc2ccccc2c1.[Al+3].[Al+3] [Luminous Organic Compound 11]
Relative Value of Fluorescence Intensity, Relative Value (1) (Related to Comparative Compound 3) [1]: 0.52
Fluorescence Intensity [1]: 262
center of Luminous Wave [1]: (455 nm)
Relative Value of Fluorescence Intensity, Relative Value (2) (Related to Metal Complex Intermediate 3) [1]: 0.53
Solubility, Ethanol [2]: 0.21 w/v %
Solubility, Ethyl Acetate [2]: 1.60 w/v %
Solubility, Methyl Ethyl Ketone [2]: over 10.0 w/v %
Solubility, Toluene [2]: 0.25 w/v %
Solubility, Xylene [2]: 0.10 w/v %

CCCC[N+](C)(C)CCCC[N+](C)(C)CCCC.O=C(C=C([O-])C(F)(F)F)c1ccc2ccccc2c1.O=C(C=C([O-])C(F)(F)F)c1ccc2ccccc2c1.O=C(C=C([O-])C(F)(F)F)c1ccc2ccccc2c1.O=C(C=C([O-])C(F)(F)F)c1ccc2ccccc2c1.O=C(C=C([O-])C(F)(F)F)c1ccc2ccccc2c1.O=C(C=C([O-])C(F)(F)F)c1ccc2ccccc2c1.O=C(C=C([O-])C(F)(F)F)c1ccc2ccccc2c1.O=C(C=C([O-])C(F)(F)F)c1ccc2ccccc2c1.[Eu+3].[Eu+3] [Luminous Organic Compound 6]
Relative Value of Fluorescence Intensity, Relative Value (1) (Related to Comparative Compound 3) [1]: 1.51
Fluorescence Intensity [1]: 758
center of Luminous Wave [1]: (613 nm)
Relative Value of Fluorescence Intensity, Relative Value (2) (Related to Metal Complex Intermediate 3) [1]: 1.53
Solubility, Ethanol [2]: 0.14 w/v %
Solubility, Ethyl Acetate [2]: over 10.0 w/v %
Solubility, Methyl Ethyl Ketone [2]: over 10.0 w/v %
Solubility, Toluene [2]: 3.86 w/v %
Solubility, Xylene [2]: 3.22 w/v %

C[N+](C)(C)CC[N+](C)(C)C.O=C(C=C([O-])C(F)(F)F)c1ccc2ccccc2c1.O=C(C=C([O-])C(F)(F)F)c1ccc2ccccc2c1.O=C(C=C([O-])C(F)(F)F)c1ccc2ccccc2c1.O=C(C=C([O-])C(F)(F)F)c1ccc2ccccc2c1.O=C(C=C([O-])C(F)(F)F)c1ccc2ccccc2c1.O=C(C=C([O-])C(F)(F)F)c1ccc2ccccc2c1.O=C(C=C([O-])C(F)(F)F)c1ccc2ccccc2c1.O=C(C=C([O-])C(F)(F)F)c1ccc2ccccc2c1.[Eu+3].[Eu+3] [Luminous Organic Compound 1]
Relative Value of Fluorescence Intensity, Relative Value (1) (Related to Comparative Compound 3) [1]: 1.31
Fluorescence Intensity [1]: 662
center of Luminous Wave [1]: (613 nm)
Relative Value of Fluorescence Intensity, Relative Value (2) (Related to Metal Complex Intermediate 3) [1]: 1.34
Solubility, Ethanol [2]: 0.20 w/v %
Solubility, Ethyl Acetate [2]: over 10.0 w/v %
Solubility, Methyl Ethyl Ketone [2]: over 10.0 w/v %
Solubility, Toluene [2]: 0.52 w/v %
Solubility, Xylene [2]: 0.10 w/v %
